# Source: US20080200454A1, “CARBON-LINKED TETRAHYDRO-PYRAZOLO-PYRIDINE MODULATORS OF CATHEPSIN S” (priority 2007, published 2008)
# Read-outs that look alike come from different tables or passages of the source.
# Target: Recombinant human cathepsin S (CatS) (Homo sapiens, UniProt P25774)
# Assay: Recombinant human cathepsin S (CatS) inhibition assay, fluorogenic substrate Z-Valine-Valine-Arginine-AMC;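 further: Baculovirus-expressed CatS in pH 5.0 sodium acetate buffer with DTT and NaCl, fluorescence read each minute over 20 min, inhibition derived from rate slope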
# Recombinant human cathepsin S (CatS), sequence (P25774 115-331): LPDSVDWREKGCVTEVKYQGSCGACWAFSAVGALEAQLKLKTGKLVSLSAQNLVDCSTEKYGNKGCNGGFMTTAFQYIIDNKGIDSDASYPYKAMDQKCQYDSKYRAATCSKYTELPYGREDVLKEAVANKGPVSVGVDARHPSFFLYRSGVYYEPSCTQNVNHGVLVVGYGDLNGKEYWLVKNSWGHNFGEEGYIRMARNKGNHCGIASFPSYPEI
IC50,Compound,IC50 (CatS IC50)
,"CN1CCN(C(=O)[C@@H]2Cc3ccc(C#Cc4cc(-c5nn(CCCN6CCOCC6)c6c5CN(S(C)(=O)=O)CC6)ccc4Cl)cc3CN2)CC1 [Example 485, (3S)-7-({2-Chloro-5-[5-(methylsulfonyl)-1-(3-morpholin-4-ylpropyl)-4,5,6,7-tetrahydro-1H-pyrazolo[4,3-c]pyridin-3-yl]phenyl}ethynyl)-3-[(4-methylpiperazin-1-yl)carbonyl]-1,2,3,4-tetrahydroisoquinoline]",50 nM
30 nM,"CS(=O)(=O)N1CCc2c(c(-c3ccc(Cl)c(C#Cc4ccc5c(c4)CN[C@H](C(=O)N4CCCCC4)C5)c3)nn2CCCN2CCOCC2)C1 [Example 486, (3S)-7-({2-Chloro-5-[5-(methylsulfonyl)-1-(3-morpholin-4-ylpropyl)-4,5,6,7-tetrahydro-1H-pyrazolo[4,3-c]pyridin-3-yl]phenyl}ethynyl)-3-(piperidin-1-ylcarbonyl)-1,2,3,4-tetrahydroisoquinoline]",
,"NC(=O)N1CCc2c(c(-c3ccc(Cl)c(C#Cc4ccc(CNCc5cccc(Cl)c5)cc4)c3)nn2CCCN2CCSCC2)C1 [Example 487, 3-(4-Chloro-3-{[4-({[(3-chlorophenyl)methyl]amino}methyl)phenyl]ethynyl}phenyl)-1-(3-thiomorpholin-4-ylpropyl)-1,4,6,7-tetrahydro-5H-pyrazolo[4,3-c]pyridine-5-carboxamide]",60 nM
,"NC(=O)N1CCc2c(c(-c3ccc(Cl)c(C#Cc4ccc(CNCc5ccccc5Cl)cc4)c3)nn2CCCN2CCSCC2)C1 [Example 488, 3-(4-Chloro-3-{[4-({[(2-chlorophenyl)methyl]amino}methyl)phenyl]ethynyl}phenyl)-1-(3-thiomorpholin-4-ylpropyl)-1,4,6,7-tetrahydro-5H-pyrazolo[4,3-c]pyridine-5-carboxamide]",140 nM
,"CS(=O)(=O)N1CCc2c(c(-c3ccc(Cl)c(C#Cc4ccc5c(c4)CNCCC5)c3)nn2CCCN2CCOCC2)C1 [Example 489, 8-({2-Chloro-5-[5-(methylsulfonyl)-1-(3-morpholin-4-ylpropyl)-4,5,6,7-tetrahydro-1H-pyrazolo[4,3-c]pyridin-3-yl]phenyl}ethynyl)-2,3,4,5-tetrahydro-1H-2-benzazepine]",480 nM
,"CN(Cc1ccc(Cl)cc1)Cc1ccc(C#Cc2cc(-c3nn(CCCN4CCN(c5ccccc5)CC4)c4c3CN(S(C)(=O)=O)CC4)ccc2Cl)cc1 [Example 490, 1-{4-[(2-Chloro-5-{5-(methylsulfonyl)-1-[3-(4-phenylpiperazin-1-yl)propyl]-4,5,6,7-tetrahydro-1H-pyrazolo[4,3-c]pyridin-3-yl}phenyl)ethynyl]phenyl}-N-[(4-chlorophenyl)methyl]-N-methylmethanamine]",70 nM
120 nM,"CC(C)(C)OC(=O)N1C[C@@H]2C[C@H]1CN2CCCn1nc(-c2ccc(Cl)c(C#Cc3ccc(CNCc4ccc(Cl)cc4)cc3)c2)c2c1CCN(S(C)(=O)=O)C2 [Example 491, 1,1-Dimethylethyl (1S,4S)-5-{3-[3-(4-chloro-3-{[4-({[(4-chlorophenyl)methyl]amino}methyl)phenyl]ethynyl}phenyl)-5-(methylsulfonyl)-4,5,6,7-tetrahydro-1H-pyrazolo[4,3-c]pyridin-1-yl]propyl}-2,5-diazabicyclo[2.2.1]heptane-2-carboxylate]",
220 nM,"CC(C)(C)OC(=O)N1C[C@H]2C[C@@H]1CN2CCCn1nc(-c2ccc(Cl)c(C#Cc3ccc(CNCc4ccc(Cl)cc4)cc3)c2)c2c1CCN(S(C)(=O)=O)C2 [Example 492, 1,1-Dimethylethyl (1R,4R)-5-{3-[3-(4-chloro-3-{[4-({[(4-chlorophenyl)methyl]amino}methyl)phenyl]ethynyl}phenyl)-5-(methylsulfonyl)-4,5,6,7-tetrahydro-1H-pyrazolo[4,3-c]pyridin-1-yl]propyl}-2,5-diazabicyclo[2.2.1]heptane-2-carboxylate]",
,"CS(=O)(=O)N1CCc2c(c(-c3ccc(Cl)c(C#Cc4ccc(CNCc5ccc(Cl)cc5)cc4)c3)nn2CCCN2C[C@@H]3C[C@H]2CN3)C1 [Example 493, 1-[4-({2-Chloro-5-[1-{3-[(1S,4S)-2,5-diazabicyclo[2.2.1]hept-2-yl]propyl}-5-(methylsulfonyl)-4,5,6,7-tetrahydro-1H-pyrazolo[4,3-c]pyridin-3-yl]phenyl}ethynyl)phenyl]-N-[(4-chlorophenyl)methyl]methanamine]",300 nM
,"CS(=O)(=O)N1CCc2c(c(-c3ccc(Cl)c(C#Cc4ccc(CNCc5ccc(Cl)cc5)cc4)c3)nn2CCCN2C[C@H]3C[C@@H]2CN3)C1 [Example 494, 1-[4-({2-Chloro-5-[1-{3-[(1R,4R)-2,5-diazabicyclo[2.2.1]hept-2-yl]propyl}-5-(methylsulfonyl)-4,5,6,7-tetrahydro-1H-pyrazolo[4,3-c]pyridin-3-yl]phenyl}ethynyl)phenyl]-N-[(4-chlorophenyl)methyl]methanamine]",310 nM
,"CN(Cc1ccc(Cl)cc1)Cc1ccc(C#Cc2cc(-c3nn(CCCN4CCOCC4)c4c3CN(S(C)(=O)=O)CC4)ccc2Cl)cc1 [Example 495, 1-[4-({2-Chloro-5-[5-(methylsulfonyl)-1-(3-morpholin-4-ylpropyl)-4,5,6,7-tetrahydro-1H-pyrazolo[4,3-c]pyridin-3-yl]phenyl}ethynyl)phenyl]-N-[(4-chlorophenyl)methyl]-N-methylmethanamine]",770 nM
70 nM,"NC(=O)C(=O)N1CCc2c(c(-c3ccc(Cl)c(C#Cc4ccc(CN[C@@H]5CCCc6ccccc65)cc4)c3)nn2CCCN2CCOCC2)C1 [Example 496, 2-[3-{4-Chloro-3-[(4-{[(1R)-1,2,3,4-tetrahydronaphthalen-1-ylamino]methyl}phenyl)ethynyl]phenyl}-1-(3-morpholin-4-ylpropyl)-1,4,6,7-tetrahydro-5H-pyrazolo[4,3-c]pyridin-5-yl]-2-oxoacetamide]",
1630 nM,"O=C(N1CCOCC1)N1CCc2c(c(-c3ccc(Cl)c(C#Cc4ccc(CNCc5ccc(Cl)cc5)cc4)c3)nn2CCCN2CCOCC2)C1 [Example 497, 1-[4-({2-Chloro-5-[5-(morpholin-4-ylcarbonyl)-1-(3-morpholin-4-ylpropyl)-4,5,6,7-tetrahydro-1H-pyrazolo[4,3-c]pyridin-3-yl]phenyl}ethynyl)phenyl]-N-[(4-chlorophenyl)methyl]methanamine]",
4560 nM,"CN(C)C(=O)N1CCc2c(c(-c3ccc(Cl)c(C#Cc4ccc(CNCc5ccc(Cl)cc5)cc4)c3)nn2CCCN2CCOCC2)C1 [Example 498, 3-(4-Chloro-3-{[4-({[(4-chlorophenyl)methyl]amino}methyl)phenyl]ethynyl}phenyl)-N,N-dimethyl-1-(3-morpholin-4-ylpropyl)-1,4,6,7-tetrahydro-5H-pyrazolo[4,3-c]pyridine-5-carboxamide]",
160 nM,"CC(=O)NCC(=O)N1CCc2c(c(-c3ccc(Cl)c(C#Cc4ccc(CNCc5ccc(Cl)cc5)cc4)c3)nn2CCCN2CCOCC2)C1 [Example 499, N-{2-[3-(4-Chloro-3-{[4-({[(4-chlorophenyl)methyl]amino}methyl)phenyl]ethynyl}phenyl)-1-(3-morpholin-4-ylpropyl)-1,4,6,7-tetrahydro-5H-pyrazolo[4,3-c]pyridin-5-yl]-2-oxoethyl}acetamide]",
,"C[C@H]1COCCN1CCCn1nc(-c2ccc(Cl)c(C#Cc3ccc(CN(C)Cc4ccc(Cl)cc4)cc3)c2)c2c1CCN(S(C)(=O)=O)C2 [Example 500, 1-[4-({2-Chloro-5-[1-{3-[(3S)-3-methylmorpholin-4-yl]propyl}-5-(methylsulfonyl)-4,5,6,7-tetrahydro-1H-pyrazolo[4,3-c]pyridin-3-yl]phenyl}ethynyl)phenyl]-N-[(4-chlorophenyl)methyl]-N-methylmethanamine]",580 nM
,"C[C@H]1COCCN1CCCn1nc(-c2ccc(Cl)c(C#Cc3ccc4c(c3)CN(CC(F)(F)F)CC4)c2)c2c1CCN(S(C)(=O)=O)C2 [Example 501, 7-({2-Chloro-5-[1-{3-[(3S)-3-methylmorpholin-4-yl]propyl}-5-(methylsulfonyl)-4,5,6,7-tetrahydro-1H-pyrazolo[4,3-c]pyridin-3-yl]phenyl}ethynyl)-2-(2,2,2-trifluoroethyl)-1,2,3,4-tetrahydroisoquinoline]",750 nM
,"CN(Cc1ccc(Cl)cc1)Cc1ccc(C#Cc2cc(-c3nn(CCCN4CCN(c5ccccn5)CC4)c4c3CN(S(C)(=O)=O)CC4)ccc2Cl)cc1 [Example 502, 1-{4-[(2-Chloro-5-{5-(methylsulfonyl)-1-[3-(4-pyridin-2-ylpiperazin-1-yl)propyl]-4,5,6,7-tetrahydro-1H-pyrazolo[4,3-c]pyridin-3-yl}phenyl)ethynyl]phenyl}-N-[(4-chlorophenyl)methyl]-N-methylmethanamine]",110 nM
,"CN(Cc1ccc(Cl)cc1)Cc1ccc(C#Cc2cc(-c3nn(CCCN4CCSCC4)c4c3CN(S(C)(=O)=O)CC4)ccc2Cl)cc1 [Example 503, 1-[4-({2-Chloro-5-[5-(methylsulfonyl)-1-(3-thiomorpholin-4-ylpropyl)-4,5,6,7-tetrahydro-1H-pyrazolo[4,3-c]pyridin-3-yl]phenyl}ethynyl)phenyl]-N-[(4-chlorophenyl)methyl]-N-methylmethanamine]",660 nM
,"CS(=O)(=O)N1CCc2c(c(-c3ccc(Cl)c(C#Cc4cccc(CNCCc5ccccc5)c4)c3)nn2CCCN2CCOCC2)C1 [Example 504, N-{[3-({2-Chloro-5-[5-(methylsulfonyl)-1-(3-morpholin-4-ylpropyl)-4,5,6,7-tetrahydro-1H-pyrazolo[4,3-c]pyridin-3-yl]phenyl}ethynyl)phenyl]methyl}-2-phenylethanamine]",280 nM
,"CS(=O)(=O)N1CCc2c(c(-c3ccc(Cl)c(C#Cc4ccc5c(c4)CCN(CC4CC4)C5)c3)nn2CCCN2CCOCC2)C1 [Example 505, 6-({2-Chloro-5-[5-(methylsulfonyl)-1-(3-morpholin-4-ylpropyl)-4,5,6,7-tetrahydro-1H-pyrazolo[4,3-c]pyridin-3-yl]phenyl}ethynyl)-2-(cyclopropylmethyl)-1,2,3,4-tetrahydroisoquinoline]",630 nM
,"CS(=O)(=O)N1CCc2c(c(-c3ccc(Cl)c(C#Cc4cccc(CNCCO)c4)c3)nn2CCCN2CCOCC2)C1 [Example 506, 2-({[3-({2-Chloro-5-[5-(methylsulfonyl)-1-(3-morpholin-4-ylpropyl)-4,5,6,7-tetrahydro-1H-pyrazolo[4,3-c]pyridin-3-yl]phenyl}ethynyl)phenyl]methyl}amino)ethanol]",520 nM
